Entries after “also recorded” stand apart in the source; their conditions may differ.
Columns and labels:
[1] = tested on: CaBP22^−333::GUS expression; experiment: CaBP22-333::GUS reporter assay, liquid-grown seedlings (saturation treatment); type: in vivo, Arabidopsis thaliana; conditions: within 24 h, one week-old seedlings
Experimental: B. Trypan blue staining of CaBP22^−333 : :GUS seedlings incubated for 24 h in medium containing compounds at the indicated concentrations.
To quantify the bioactivity of HTC, we performed various assays with one week-old CaBP22^−333::GUS seedlings submerged in liquid growth medium containing HTC or mock-solution (saturation treatment). […] To examine if HTC induces phytotoxicity, we stained Col-0 seedlings after saturation treatment with trypan blue.
To determine which substituents or moieties of the HTC molecule are critical for its defense-inducing activity, seven commercially available HTC analogs were analyzed (FIG. 3A). We compared the ability of these compounds to induce GUS expression in saturation treated CaBP22^−333::GUS Arabidopsis seedlings to that of DCA and HTC. […] We also used trypan blue staining to examine HTC-analog-induced phytotoxicity.

[2] = tested on: Peronospora isolate Noco2; experiment: Noco2 spore inhibition assay in soil-grown seedlings; type: in vivo, Hyaloperonospora arabidopsidis; conditions: for HTC-triggered immunity to Noco2: 100 μM; for suppression of Noco2 spore formation / resistance to Noco2: 7 dpi
Experimental: FIG. 2. Kinetic analysis of chemically-induced disease resistance. Experiments were conducted with three-week-old soil-grown Col-0 seedlings sprayed with 100 μM HTC, DCA, INA, or mock solution (1% DMSO) at the indicated times prior to being sprayed with 2×10^4 mL^−1Noco2 spores (2 ml per pot). Peronospora (Hyeloperonospora arabidopsidis) spores were counted 7 dpi (days post-infection). Mean and SE values were calculated from a minimum of three biological replicates and the average of those is shown above.
FIG. 3. Structure-activity analysis of HTC analogs. A. Chemical structures of DCA, HTC and tested HTC analogs. Chiral centers of the HTC skeleton are indicated by “1*” and “2*” in HTC. B. Noco2 spore inhibition assay. Three-week-old soil-grown Col-0 seedlings were spray-infected 24 h after treating with varying concentrations of each synthetic elicitor and then assayed at 7 dpi for spore growth. 100% inhibition=0 spores. […] The average of those three replicates is shown. Significant differences of compound-treated compared to mock-treated seedlings determined by Student's t-tests (p<0.05) are marked by colored four pointed stars.
FIG. 4. Analysis of HTC activity in defense mutant plants. A & B. RT-PCR analysis of CaBP22 transcript levels in Col-0 (wild-type) and mutant backgrounds 24 h after spraying 2-week-old seedlings with mock-solution (1% DMSO), 100 μM DCA, or HTC. RT-PCRs with ACTIN are shown as loading controls. […] C. Analysis of HTC activity in Col-0 or nahG background. Experiments were conducted with three-week-old soil-grown Col-0 or nahG seedlings sprayed with 100 μM HTC, 100 μM DCA, or mock-solution (1% DMSO) 24 h prior to infection with 2×10^4 virulent Noco2 spores ml^−1 (2 ml per pot). Spores were counted at 7 dpi. Mean and SE values were calculated from a minimum of three biological replicates and their averages of are shown.
We next tested whether HTC could induce pathogen resistance in soil-grown plants. […] To determine if HTC differs from other synthetic elicitors in the kinetics of defense induction, Col-0 seedlings were sprayed with 100 μM of INA, DCA, HTC, or mock, 1 h, 3 h, 1 d, 3 d, or 6 d prior to pathogen challenge.
We performed a dose-response analysis of inhibition of Noco2 spore development in three-week old Col-0 plants using the HTC analogs (FIG. 3B).
We also compared the biological activity of s-HTC to that of p-HTC by spraying a concentration gradient of both preparations on soil-grown Col-0 seedlings 24 h prior to challenge with Noco2.

Arabidopsis roots = experiment: Root length of Col-0 seedlings on 1/2 MS plates containing synthetic elicitor; type: in vivo, Arabidopsis thaliana
Experimental: FIG. 5. Relative root length of Col-0 plants grown on synthetic elicitors. Col-0 seedlings were plated in square petri dishes on ½ MS medium containing 1, 10, 25, 50, 75 or 100 μM of HTC, DCA, INA, or the respective controls (solvent only). A. Roots of Col-0 seedlings grown on 1 uM HTC or control (0.01% DMSO) medium 14 days after germination. B. Average percent Col-0 root length grown on synthetic elicitors compared to Col-0 grown on control. Root length was measured at day 3, 5, 7, 11, and 14. Results are expressed as percentages of the average root length on the respective synthetic elicitor treatments compared to their controls. The average, standard error, and Student's t-test (p<0.05) were calculated from these values. Significant differences between synthetic elicitor-treated and control-treated plants are marked by a star above the corresponding data point. Y-axis represents relative root growth in the presence of synthetic elicitor. CSE: concentration of synthetic elicitor; dpg: days post germination.
We compared the ability of other synthetic elicitors to enhance growth, and performed root growth assays with INA, DCA, and HTC (FIG. 5B). Each synthetic elicitor was added to the solid media plates at concentrations ranging from 1 to 100 μM. The plates were placed upright in a growth chamber, and root lengths were measured at 3 d-intervals. To merge data sets, root length was expressed as a percentage of their value relative to the average of the mock (control) for that data set. Normalizing each root length to its control allowed all replicates to be combined together to calculate averages, standard errors, and perform statistical tests (FIG. 5B).

Col-0 seedlings = experiment: Fresh weight of aerial portions of soil-drenched Col-0 seedlings; type: in vivo, Arabidopsis thaliana; conditions: 1-100 μM soil drench, day 14
Experimental: FIG. 6. Relative weight of aerial portions of synthetic elicitor treated Col-0 seedlings compared to control (DMSO) treated seedlings. Col-0 seeds (15-20 seeds per pot) were sown on soil drenched with 20 mL of the indicated concentrations of HTC, INA, DCA, or the respective mock solutions. Fresh weight (FW) of the above-ground plant tissues was measured at day 14. Results are expressed as percentages of the average FW of the respective synthetic elicitor treated plants compared to that of mock-treated controls. The standard error and Student's t-test (p<0.05) were calculated from at least three biological replicates and averages are shown. Significant differences between synthetic elicitor-treated and control-treated plants are marked by a star above the corresponding data point. Y-axis represents percent of FW in the presence of synthetic elicitor compared to controls.
To determine whether the synthetic […] could increase the aerial weight of Arabidopsis, soil-sown-seedlings were drenched with synthetic elicitor in water at day 0 (FIG. 6). After 14 days, aerial portions of plants were cut off and their fresh weight measured. […] HTC thus has a hormesis-like effect in Arabidopsis roots, but generally increases the aerial fresh weight of Arabidopsis at the concentrations tested.

For `O=C(O)C1CSC(c2cc(Br)ccc2O)N1` (centres unmarked) [HTC, 2-(5-bromo-2-hydroxy-phenyl)-thiazolidine-4-carboxylic acid], the “concentration activating CaBP22-333::GUS expression (as low as)” value [1] was 1 µM, the “HTC-triggered immunity to Noco2” value ([2]; 6 dpt) was “not detectable” and the “HTC-triggered immunity to Noco2” value ([2]; 3 days post treatment (dpt)) was “reduced”. For the same molecule, the “efficacy of s-HTC versus p-HTC in reducing Noco2 spore counts” value ([2]; 20, 50, 100, and 200 μM sprayed on Col-0 24 h prior to challenge) was “No significant difference”, the “suppression of Noco2 spore formation / resistance to Noco2” value ([2]; Col-0, 100 μM sprayed 24 h prior to infection) was “able to do so; also recorded: significantly suppresses” and the “concentration giving significantly reduced numbers of Noco2 spores (as low as)” value ([2]; Col-0 sprayed prior to infection, spores 7 dpi) was 10 µM. The “level of protection / defense-inducing activity against Noco2” value ([2]; dose-response, three-week old Col-0 (FIG. 3B)) was “highest protection; also recorded: most potent of the tested analogs”, the “concentration giving significant protection against Noco2” value ([2]; dose-response, three-week old Col-0, infected 24 h after treatment, 7 dpi (FIG. 3B)) was 10 µM and the “suppression of Noco2 spore formation / resistance to Noco2” value ([2]; nahG, 100 μM sprayed 24 h prior to infection) was “did not observe significant reduction and not”. For the same molecule, the “root length relative to control plates” value (Arabidopsis roots; 1 μM) was “up to 180%”, the “enhancement of root length / root growth” value (Arabidopsis roots; HTC at 1 μM only, DCA and INA at various tested concentrations) was “enhanced the root length” and the “reduction of length of roots” value (Arabidopsis roots; concentrations above 50 μM) was ~80%. The “root growth at higher concentrations” value (Arabidopsis roots; higher doses, range tested 1 to 100 μM) was “reduced root growth; also recorded: strongly inhibited” and the “fresh weight of shoots relative to mock-treated plants” value (Col-0 seedlings) was ~120%.

— US9420790B2, “Molecules that induce disease resistance and improve growth in plants” (The Regents of the University of California, priority 2013, dated 2016)
